Results as given in ChEMBL document CHEMBL3879900, “aSMase inhibitors” (2012).
Activity calls are given as the source filed them. No rule for the calls is given here.

Molecular target: T1, Sphingomyelin phosphodiesterase (Homo sapiens) (UniProt P17405)
T1 sequence (whole entry): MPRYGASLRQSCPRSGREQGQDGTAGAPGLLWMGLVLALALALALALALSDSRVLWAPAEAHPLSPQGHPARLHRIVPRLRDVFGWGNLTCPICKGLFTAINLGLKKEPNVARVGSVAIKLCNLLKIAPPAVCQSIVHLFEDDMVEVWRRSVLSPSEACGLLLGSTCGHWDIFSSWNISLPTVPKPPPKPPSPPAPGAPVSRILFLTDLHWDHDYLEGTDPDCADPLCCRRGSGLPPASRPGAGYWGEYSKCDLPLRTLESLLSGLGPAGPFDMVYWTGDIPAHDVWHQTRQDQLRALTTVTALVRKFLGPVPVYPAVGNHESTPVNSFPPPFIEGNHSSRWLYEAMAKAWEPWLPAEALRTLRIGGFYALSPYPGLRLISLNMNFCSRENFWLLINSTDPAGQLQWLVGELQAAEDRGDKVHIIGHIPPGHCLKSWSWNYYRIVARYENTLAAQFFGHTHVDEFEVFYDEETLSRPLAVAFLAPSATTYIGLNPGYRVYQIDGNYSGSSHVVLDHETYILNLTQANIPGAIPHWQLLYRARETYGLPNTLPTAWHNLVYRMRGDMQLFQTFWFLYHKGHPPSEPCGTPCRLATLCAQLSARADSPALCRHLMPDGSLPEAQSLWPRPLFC
Experiment: Inhibition of recombinant human acid sphingomyelinase expressed in HEKfreestyle293 cells using bodipy-C12 sphingomyelin as substrate and nanomolar to low micromolar concentration of compound after 1 hr by fluorescence assay

inhibition, active:
CCCCCCCCOc1ccc(-c2ccc(C(=O)Nc3ccccc3CP(=O)(O)O)cc2)cc1
CCCCCCCCOc1ccc(-c2ccc(C(=O)Nc3ccccc3CCP(=O)(OCC)OCC)cc2)cc1
CCCCCCCCOc1ccc(-c2ccc(C(=O)Nc3cccc(CP(=O)(O)O)c3)cc2)cc1
O=C(Nc1ccccc1CP(=O)(O)O)c1ccc(-c2ccccc2)cc1
CCCCOc1ccc(-c2ccc(C(=O)Nc3ccccc3CP(=O)(O)O)cc2)cc1
CCCCCCCCOc1ccc(-c2ccc(C(=O)Nc3cccc(CP(=O)(O)OCC)c3)cc2)cc1
CCCCCCCCOc1ccc(-c2ccc(C(=O)Nc3ccccc3P(=O)(OCOC(=O)C(C)(C)C)OCOC(=O)C(C)(C)C)cc2)cc1
CCCCCCCCOc1ccc(-c2ccc(C(=O)Nc3ccccc3C(F)(F)P(=O)(O)OCC)cc2)cc1
CCCCCCCCOc1ccc(-c2ccc(C(=O)N(C)c3ccc(C(F)(F)P(=O)(OCC)OCC)cc3)cc2)cc1
CCCCCCCCOc1ccc(-c2ccc(C(=O)Nc3ccccc3C(F)(F)P(=O)(OC)OCC)cc2)cc1 (stereo not drawn)
CCCCCCCCOc1ccc(-c2ccc(C(=O)Nc3ccccc3P(=O)(O)O)cc2)cc1
CCCCCCCCOc1ccc(-c2ccc(C(=O)Nc3ccccc3C(F)(F)P(=O)(O)O)cc2)cc1
CCCCCCCCOc1ccc(-c2ccc(C(=O)N(C)c3cccc(C(F)(F)P(=O)(OC)OCC)c3)cc2)cc1 (stereo not drawn)
CCCCCCCCOc1ccc(-c2ccc(C(=O)Nc3cccc(P(=O)(O)OCC)c3)cc2)cc1
CCCCCCCCOc1ccc(-c2ccc(C(=O)N(C)c3ccccc3C(F)(F)P(=O)(OC)OCC)cc2)cc1 (stereo not drawn)
O=C(Nc1ccccc1CP(=O)(O)O)c1ccc(-c2ccc(O)cc2)cc1
COc1ccc(-c2ccc(C(=O)Nc3ccccc3CP(=O)(O)O)cc2)cc1
CCCCCCCCOc1ccc(-c2ccc(C(=O)Nc3cccc(C(F)(F)P(=O)(OCC)OCC)c3)cc2)cc1
CCCCCCCCOc1ccc(-c2ccc(C(=O)N(C)c3ccc(C(F)(F)P(=O)(OC)OCC)cc3)cc2)cc1 (stereo not drawn)
CCCCCCCOc1ccc(-c2ccc(C(=O)Nc3cccc(P(=O)(O)O)c3)cc2)cc1
CCCCCCCCOc1ccc(-c2ccc(C(=O)Nc3ccccc3P(=O)(O)OCOC(=O)C(C)(C)C)cc2)cc1
CCCCCCCCOc1ccc(-c2ccc(C(=O)Nc3ccc(C(F)(F)P(=O)(OCC)OCC)cc3)cc2)cc1
CCCCCCCCOc1ccc(-c2ccc(C(=O)Nc3cccc(CCP(=O)(O)O)c3)cc2)cc1
CCCCCCCCOc1ccc(-c2ccc(C(=O)Nc3ccc(C(F)(F)C(F)(F)P(=O)(OCC)OCC)cc3)cc2)cc1
CCCCCCCCOc1ccc(-c2ccc(C(=O)Nc3ccccc3P(=O)(O)OCC)cc2)cc1
CCCCCCCCOc1ccc(-c2ccc(C(=O)Nc3cccc(CP(=O)(OCC)OCC)c3)cc2)cc1
CCCCCCCCOc1ccc(-c2ccc(C(=O)Nc3cccc(N4CC(=O)NS4(=O)=O)c3)cc2)cc1
CCCCCCCCOc1ccc(-c2ccc(C(=O)Nc3ccc(C(F)(F)C(F)(F)P(=O)(O)O)cc3)cc2)cc1
CCCCCCCCCCOc1ccc(-c2ccc(C(=O)Nc3ccccc3P(=O)(OCC)OCC)cc2)cc1
CCCCCCCCOc1ccc(-c2ccc(C(=O)Nc3cccc(CCP(=O)(OCC)OCC)c3)cc2)cc1
CCCCCCCCOc1ccc(-c2ccc(C(=O)N(C)c3cccc(C(F)(F)P(=O)(O)O)c3)cc2)cc1
CCCCCCCCOc1ccc(-c2ccc(C(=O)Nc3ccccc3C(F)(F)C(F)(F)P(=O)(OCC)OCC)cc2)cc1
CCCCCCCCOc1ccc(-c2ccc(C(=O)Nc3ccccc3CCP(=O)(O)O)cc2)cc1
CCCCCCCCOc1ccc(-c2ccc(C(=O)Nc3ccc(P(=O)(OCC)OCC)cc3)cc2)cc1
CCCCCCCCOc1ccc(-c2ccc(C(=O)N(C)c3ccccc3C(F)(F)P(=O)(OCC)OCC)cc2)cc1
CCCCCCCCOc1ccc(-c2ccc(C(=O)Nc3ccc(P(=O)(O)OCC)cc3)cc2)cc1
CCCCCCCCOc1ccc(-c2ccc(C(=O)N(C)c3ccc(C(F)(F)P(=O)(O)O)cc3)cc2)cc1
CCCCCCCCOc1ccc(-c2ccc(C(=O)N(C)c3ccccc3C(F)(F)P(=O)(O)O)cc2)cc1
CCCCCCCCOc1ccc(-c2ccc(C(=O)Nc3ccc(CCP(=O)(OCC)OCC)cc3)cc2)cc1
O=C(Nc1ccccc1CP(=O)(O)O)C12CC3CC(C1)CC(c1ccccc1)(C3)C2
CCCCCCCCOc1ccc(-c2ccc(C(=O)N(C)c3cccc(C(F)(F)P(=O)(O)OCC)c3)cc2)cc1
CCCCCCCCOc1ccc(-c2ccc(C(=O)Nc3ccccc3C(F)(F)P(=O)(OCC)OCC)cc2)cc1
CCCCCCCCOc1ccc(-c2ccc(C(=O)Nc3ccc(C(F)(F)CC(F)(F)P(=O)(OCC)OCC)cc3)cc2)cc1
CCCCCCCCOc1ccc(-c2ccc(C(=O)Nc3cccc(C(F)(F)C(F)(F)P(=O)(O)O)c3)cc2)cc1
CCCCCCCCOc1ccc(-c2ccc(C(=O)Nc3ccccc3C(F)(F)C(F)(F)P(=O)(O)O)cc2)cc1
CCCCCCCCOc1ccc(-c2ccc(C(=O)Nc3ccc(C(F)(F)C(F)(F)P(=O)(O)OCC)cc3)cc2)cc1
CCCCCCc1ccc(-c2ccc(C(=O)Nc3ccccc3CP(=O)([O-])OCC[N+](C)(C)C)cc2)cc1
CCCCCCCCOc1ccc(-c2ccc(C(=O)Nc3ccc(CCP(=O)(O)O)cc3)cc2)cc1
CCCCCCCCOc1ccc(-c2ccc(C(=O)Nc3ccc(CP(=O)(O)O)cc3)cc2)cc1
CCCCCCCCOc1ccc(-c2ccc(C(=O)Nc3cccc(C(F)(F)P(=O)(O)OCC)c3)cc2)cc1
CCCCCCCCOc1ccc(-c2ccc(C(=O)Nc3ccc(C(F)(F)P(=O)(O)O)cc3)cc2)cc1
CCCCCCCCOc1ccc(-c2ccc(C(=O)N(CC)c3cccc(C(F)(F)P(=O)(OCC)OCC)c3)cc2)cc1
CCCCCCCCOc1ccc(-c2ccc(C(=O)Nc3ccccc3P(=O)(OCC)OCC)cc2)cc1
O=C(Nc1ccccc1CP(=O)(O)O)c1ccc(-c2ccc(OCc3ccccc3)cc2)cc1
CCCCCCCCOc1ccc(-c2ccc(C(=O)Nc3cccc(P(=O)(OCC)OCC)c3)cc2)cc1
CCCCCCCCOc1ccc(-c2ccc(C(=O)N(C)c3cccc(C(F)(F)P(=O)(OCC)OCC)c3)cc2)cc1
CCCCCCCCCCOc1ccc(-c2ccc(C(=O)Nc3ccccc3CP(=O)(O)O)cc2)cc1
CCCCCCc1ccc(-c2ccc(C(=O)Nc3ccccc3CP(=O)(O)O)cc2)cc1
CCCCCCCCOc1ccc(-c2ccc(C(=O)Nc3cccc(P(=O)(O)O)c3)cc2)cc1
CCCCCCCCOc1ccc(-c2ccc(C(=O)Nc3cccc(C(F)(F)P(=O)(O)O)c3)cc2)cc1
CCCCCCCCOc1ccc(-c2ccc(C(=O)Nc3ccc(P(=O)(O)O)cc3)cc2)cc1
CCCCCCCCOc1ccc(-c2ccc(C(=O)Nc3ccc(C(F)(F)P(=O)(O)OCC)cc3)cc2)cc1
CCCCCCCCOc1ccc(-c2ccc(C(=O)Nc3cccc(C(F)(F)C(F)(F)P(=O)(OCC)OCC)c3)cc2)cc1
